# Data reported in patent publication US9682126B2, “Postprandial gastrokinetic agent” (ZERIA PHARMACEUTICAL CO., LTD., priority 2013, dated 2017).
# Tests used:
# [1] = tested on: Suncus murinus; test: Gastric motility in interdigestive period, sham-operated vs vagotomized (Example 2); assay type: in vivo; details: motilin 50 ng/kg/min iv over 10 minutes
# Procedure: Each of Suncus motilin (Scrum Inc., Tokyo, Japan) and human ghrelin (Asubio Pharma Co., Ltd., Hyogo, Japan) were dissolved in PBS containing 0.1% bovine serum albumin. Suncus murinus (male, outbred KAT strain, 7 to 15 weeks old, 60 to 100 g) was used for the experiment. Each animal was bred in a plastic cage provided with an empty can as a nest box under the following conditions: temperature at 23±2° C., illumination between 8:00 and 20:00, and free intake of commercial trout feed (SP, Nippon Formula Feed Mfg Co., Ltd., Yokohama, Japan). After 3 hours of fasting, Suncus murinus was anesthetized by an intraperitoneal injection of pentobarbital sodium (50 mg/kg). Through a midline incision, the stomach was exposed outside the body, and a force transducer was fixed via suture in the circular muscle direction of the body of stomach. The wire extending from the force transducer was inserted through the abdominal wall, passed under the skin, and exposed at the back of the neck. Thereafter, truncal vagotomy was performed. A lower portion of the esophagus was exposed, both branches of the vagus nerve were isolated, and about 3 mm of the vagus nerve was excised above the hepatic branch and the celiac branch. For sham-operated Suncus murinus, the vagus nerve was exposed, but not excised. An intravenous catheter was inserted in the right jugular, and extracorporeally fixed to the back. The catheter was filled with heparinized saline (100 units/mL) to prevent clotting. From 2 days after the operation, the gastric motility was recorded. Administration of motilin was initiated 10 minutes after completion of spontaneous phase III. Synthesized suncus motilin was continuously injected at 50 ng/kg/min over 10 minutes, and the continuously injected amount was 50 μL/100 g BW/min. Administration of ghrelin was initiated 10 minutes after completion of spontaneous phase II. […] Amplified analog signals were converted into digital signals by an analog-to-digital converter (ADC-20, Pico Technology Ltd, St Neots, UK), and the digital signals were recorded on a computer. Phase III contractions of MMC in conscious Suncus murinus were defined on the basis of those in dogs and humans (that is, clustered contractions with an amplitude of 8 g or more that lasts for 5 minutes or more). Gastric motility was quantitated using a motility index (MI). A motility index (MI) based on a drug was calculated using the following equation. MI (%)=A/B×100 A: AUC of contractions for 10 minutes during which the drug was administered B: […] Statistical analysis After ANOVA, Student's t test was performed.
# [2] = tested on: Suncus murinus; test: Gastric motility in postprandial period, sham-operated vs vagotomized (Example 2); assay type: in vivo
# Procedure: Each of Suncus motilin (Scrum Inc., Tokyo, Japan) and human ghrelin (Asubio Pharma Co., Ltd., Hyogo, Japan) were dissolved in PBS containing 0.1% bovine serum albumin. Suncus murinus (male, outbred KAT strain, 7 to 15 weeks old, 60 to 100 g) was used for the experiment. Each animal was bred in a plastic cage provided with an empty can as a nest box under the following conditions: temperature at 23±2° C., illumination between 8:00 and 20:00, and free intake of commercial trout feed (SP, Nippon Formula Feed Mfg Co., Ltd., Yokohama, Japan). After 3 hours of fasting, Suncus murinus was anesthetized by an intraperitoneal injection of pentobarbital sodium (50 mg/kg). Through a midline incision, the stomach was exposed outside the body, and a force transducer was fixed via suture in the circular muscle direction of the body of stomach. The wire extending from the force transducer was inserted through the abdominal wall, passed under the skin, and exposed at the back of the neck. Thereafter, truncal vagotomy was performed. A lower portion of the esophagus was exposed, both branches of the vagus nerve were isolated, and about 3 mm of the vagus nerve was excised above the hepatic branch and the celiac branch. For sham-operated Suncus murinus, the vagus nerve was exposed, but not excised. An intravenous catheter was inserted in the right jugular, and extracorporeally fixed to the back. The catheter was filled with heparinized saline (100 units/mL) to prevent clotting. From 2 days after the operation, the gastric motility was recorded. 1 g of feed was given to the Suncus murinus during phase I to observe postprandial contractions. Motilin was continuously injected at 50 ng/kg/min over 10 minutes 20 minutes after completion of intake of feed. Amplified analog signals were converted into digital signals by an analog-to-digital converter (ADC-20, Pico Technology Ltd, St Neots, UK), and the digital signals were recorded on a computer. […] Gastric motility was quantitated using a motility index (MI). A motility index (MI) based on a drug was calculated using the following equation. […]
# [3] = tested on: subjects; details: motilin continuously administered intravenously to fasting subjects; cited from earlier work
structure (smiles),measurement,setting,value
CC[C@H](C)[C@H](NC(=O)[C@@H]1CCCN1C(=O)[C@@H](NC(=O)[C@@H](N)Cc1ccccc1)C(C)C)C(=O)N[C@@H](Cc1ccccc1)C(=O)N[C@H](C(=O)N[C@@H](Cc1ccc(O)cc1)C(=O)NCC(=O)N[C@@H](CCC(=O)O)C(=O)N[C@@H](CC(C)C)C(=O)N[C@@H](CCC(N)=O)C(=O)N[C@@H](CCCNC(=N)N)C(=O)N[C@@H](CCSC)C(=O)N[C@@H](CCC(N)=O)C(=O)N[C@@H](CCC(=O)O)C(=O)N[C@@H](CCCCN)C(=O)N[C@@H](CCC(=O)O)C(=O)N[C@@H](CCCNC(=N)N)C(=O)N[C@@H](CC(N)=O)C(=O)N[C@@H](CCCCN)C(=O)NCC(=O)N[C@@H](CCC(N)=O)C(=O)O)[C@@H](C)O [motilin],motilin-induced phase III-like contractions,"[1]; both sham-operated and vagotomized, 10 minutes after spontaneous phase III",phase III-like contractions were observed
same,"contraction duration due to motilin, sham-operated vs vagotomized",[1]; phase I,a significant difference was not observed
same,"motility index (MI) during administration of motilin, sham-operated vs vagotomized",[1]; phase I,a significant difference was not observed
same,"MI of postprandial motilin-induced contractions, vagotomized compared with sham-operated",[2]; motilin 50 ng/kg/min after intake of feed,significantly higher
same,phase III-like contractions,"[2]; sham-operated, after intake of feed, motilin 50 ng/kg/min, 10-minute administration",did not induce phase III-like contractions
same,phase III contractions,"[2]; vagotomized, after intake of feed, motilin 50 ng/kg/min, 10-minute administration",induced strong phase III contractions
same,gastric emptying,[3],accelerate gastric emptying
